The subject of one assay is IQN17. Description: Binding of Alexa-C28 to IQN17, titration measured by capillary zone electrophoresis. Set-up: species or system HIV-1. The settings on record: 5 μM Alexa-C28, increasing concentration of IQN17, FIG. 3. The protocol: Eckert et al., Cell 99, 103-115 (1999). C28 was labeled with the fluorescent molecule, Alexa-430 (Molecular Probes) at its carboxyl terminal (Alexa-C28). The binding was measured by titration of labeled C28 with IQN17. The concentration of bound and unbound C28 was measured by capillary zone electrophoresis.
Capillary Electrophoresis Separations. Capillary electrophoresis experiments were conducted on a Beckman Coulter P/ACE System MDQ and a Spectrumedix 9610HTS. […] Separations were conducted with an applied voltage of 30 kV. The capillaries used in the Spectrumedix 9610HTS has an inner diameter of 50 μm, effective length of 50 cm, and an inner surface of fused silica. Separations were conducted with an applied voltage of 13 kV. Separation buffer was 20 mM Sodium Borate, pH=8.5. Peptides traveling passed a fluorescence detector were excited by a laser emitting at 488 nm. The peaks were analyzed using software packages supplied by the instrument companies. In the figures, RFU refers to relative fluorescence units.
Binding of C28 to IQN17: Peptide concentrations were determined by weight. […] The binding affinity of C28 to IQN-17 was determined by a capillary electrophoresis (FIG. 3). […]
The area of the Alexa-C28 peaks in increasing concentrations of IQN-17 was analyzed in comparison to the area of Alexa-C28 in the absence of IQN-17 by capillary zone electrophoresis. […]

For assay [1], the target named is IQN17 (HIV-1 (gp41 segment); GCN4-pIQI segment designed).

Where no end group is shown, it is not given here.

Regarding “Alexa-C28: C28 labeled with the fluorescent molecule Alexa-430 at its carboxyl terminal (WMEWDREINNYTSLIHSLIEESQNQQEK-{Alexa‑430})”, the “amount of unbound peptide (broader peak on the right) in titration” value in the assay on IQN17 is on record as “decreased from 100% to 0%”. For the molecule WMEWDREINNYTSLIHSLIEESQNQQEK (modifications not checked) [Alexa-C28], the percent of C28 bound in assay [1] is 80%.
